The nature of series [1]: Stability (survival rate) in acidic aqueous solution by HPLC. The note with it: pH 3, 80° C., 7 hours, comparative compound = α-L-aspartyl-D-α-aminobutyric acid (S)-α-ethylbenzylamide.
Description: With respect to stability in an acidic aqueous solution, the percentage (survival rate) of the compound still surviving in an acidic aqueous solution having a pH of 3 at 80° C. for 7 hours by HPLC was measured.
Series [2] in a line: Sensory evaluation of sweetness potency relative to sugar. The note with it: for Sweetness Potency: Table 1, based on an aqueous solution of 4% sucrose having a sweetness potency of 1 (one); for sweetness potency value: sensory evaluation, running text.
A further series deals with ICR male mice. Conditions: oral administration of 2.0 g/kg once.

From patent US5723165A, “Aspartyldipeptide derivatives and sweetener compositions containing the same” (Ajinomoto Co., Inc., priority 1994, dated 1998) come the findings set out here.

On to `CC[C@H](NC(=O)C1(NC(=O)[C@@H](N)CC(=O)O)CCCC1)c1ccccc1` [Example 6, α-L-aspartyl-α-aminocyclopentanecarboxylic acid (S)-α-ethylbenzylamide], for which the “stability (survival rate in an acidic aqueous solution) relative to comparative compound” value in series [1] is “about 10 times that of the comparative”. For the same compound, in series [2], the “Sweetness Potency” value came to 1000 and the sweetness potency value is 1000 times that of sugar.

`COC[C@H](NC(=O)C(NC(=O)[C@@H](N)CC(=O)O)c1ccco1)c1ccccc1` (mixture of isomers) [α-L-aspartyl-DL-furylglycine (R)-α-methoxymethylbenzylamide]: the toxicity result in the series on ICR male mice was “no problematic toxicity”. Also, the sweetness potency value entry in series [2] is listed as “about 1200 times that of sugar”.

For `CC[C@@H](C)[C@@H](NC(=O)[C@@H](N)CC(=O)O)C(=O)N[C@@H](COC)c1ccccc1` [Example 17, α-L-aspartyl-D-isoleucine (R)-α-methoxymethylbenzylamide], in series [2], the “Sweetness Potency” value amounted to 500 and the sweetness potency value is listed as 500 times that of sugar.

Turning to `CC[C@H](NC(=O)C1(NC(=O)[C@@H](N)CC(=O)O)CCCCC1)c1ccccc1` [α-L-aspartyl-α-aminocyclohexanecarboxylic acid (S)-α-ethylbe], the toxicity entry with ICR male mice was “no problematic toxicity”. Moreover, the “stability (survival rate in an acidic aqueous solution) relative to comparative compound” value in series [1] is given as “about 9 times that of the comparative compound”. In series [2], the sweetness potency value result is recorded as “about 1000 times that of sugar”.

For the compound `COC[C@H](NC(=O)[C@H](NC(=O)[C@@H](N)CC(=O)O)[C@H](C)O)c1ccccc1` [Example 2, α-L-aspartyl-D-threonine (R)-α-methoxymethylbenzylamide], in series [2], the “Sweetness Potency” value is on record as 500 and the sweetness potency value is given as 500 times that of sugar.

For `CC[C@H](NC(=O)C(C)(CC)NC(=O)[C@@H](N)CC(=O)O)c1ccccc1` (mixture of isomers) [Example 10, α-L-aspartyl-DL-isovaline (S)-α-ethylbenzylamide], in series [2], the “Sweetness Potency” value was 100 and the sweetness potency value was 100 times that of sugar.

In the case of `COC[C@H](NC(=O)C1(NC(=O)[C@@H](N)CC(=O)O)CCCCC1)c1ccccc1` [Example 13, α-L-aspartyl-α-aminocyclohexanecarboxylic acid (R)-α-methoxymethylbenzylamide], in series [2], the “Sweetness Potency” value is given as 250 and the sweetness potency value is reported as 250 times that of sugar.

Turning to `COC[C@H](NC(=O)[C@H](NC(=O)[C@@H](N)CC(=O)O)c1ccccc1)c1ccccc1` [Example 12, α-L-aspartyl-D-phenylglycine (R)-α-methoxymethylbenzylamide], in series [2], the “Sweetness Potency” value stood at 500 and the sweetness potency value is listed as 500 times that of sugar.

With `COC[C@@H](NC(=O)[C@H](NC(=O)[C@@H](N)CC(=O)O)C(C)C)c1ccccc1` [Example 20, α-L-aspartyl-D-valine (S)-α-methoxymethylbenzylamide], in series [2], the “Sweetness Potency” value is given as less than 20 and the sweetness potency value entry is “not more than 20 times that of sugar”.

Consider `CC[C@H](NC(=O)C1(NC(=O)[C@@H](N)CC(=O)O)CCCC1)c1ccccc1` [α-L-aspartyl-α-aminocyclopentanecarboxylic acid (S)-α-ethylb], for which the “stability (survival rate in an acidic aqueous solution) relative to comparative compound” value in series [1] is recorded as “about 10 times that of the comparative compound”. Also, the sweetness potency value entry in series [2] is listed as “about 1000 times that of sugar”.

As for `COC[C@H](NC(=O)C(NC(=O)[C@@H](N)CC(=O)O)c1ccco1)c1ccccc1` (mixture of isomers) [Example 5, α-L-aspartyl-DL-furylglycine (R)-α-methoxymethylbenzylamide], in series [2], the “Sweetness Potency” value is 1200 and the sweetness potency value is 1200 times that of sugar.

In the case of `CCOC[C@H](NC(=O)[C@H](NC(=O)[C@@H](N)CC(=O)O)C(C)C)c1ccccc1` [Example 15, α-L-aspartyl-D-valine (R)-α-ethoxymethylbenzylamide], in series [2], the “Sweetness Potency” value is 500 and the sweetness potency value was 500 times that of sugar.

For `CC[C@H](NC(=O)[C@H](NC(=O)[C@@H](N)CC(=O)O)[C@H](C)CC)c1ccccc1` [Example 3, α-L-aspartyl-D-isoleucine (S)-α-ethylbenzylamide], in series [2], the “Sweetness Potency” value came out at 500 and the sweetness potency value is 500 times that of sugar.

Consider `CC[C@@H](NC(=O)[C@@H](N)CC(=O)O)C(=O)N[C@@H](COC)c1ccccc1` [α-L-aspartyl-D-α-aminobutyric acid (R)-α-methoxymethylbenzyl], for which, in series [2], the sweetness potency value entry is on record as “about 1200 times that of sugar”.

In the case of `CCC(NC(=O)C(CC(C)C)NC(=O)C(N)CC(=O)O)c1ccccc1` [D-Leu (S) Et Ph], in series [2], the “Sweetness Potency” value worked out at 100.

As for `CC[C@H](NC(=O)C(NC(=O)[C@@H](N)CC(=O)O)c1ccco1)c1ccccc1` (mixture of isomers) [Example 4, α-L-aspartyl-DL-furylglycine (S)-α-ethylbenzylamide], in series [2], the “Sweetness Potency” value was 1200. The values for the sweetness potency value in series [2] and in series [2] (listed as α-L-aspartyl-DL-furylglycine(S)-α-ethylbenzylamide) were 1200 times that of sugar and “about 1200 times that of sugar”, respectively.

Consider `COC[C@@H](NC(=O)[C@H](NC(=O)[C@@H](N)CC(=O)O)C(C)C)C(C)C` [Example 14, α-L-aspartyl-D-valine (S)-α-methoxymethyl-β-methylpropylamide], for which, in series [2], the “Sweetness Potency” value was found to be 40 and the sweetness potency value is listed as 40 times that of sugar.

For `COC[C@H](NC(=O)[C@H](NC(=O)[C@@H](N)CC(=O)O)C(C)C)c1ccccc1` [α-L-aspartyl-D-valine (R)-α-methoxymethylbenzylamide], in the series with ICR male mice, the toxicity result is recorded as “no problematic toxicity”. The sweetness potency value result in series [2] is recorded as “about 1300 times that of sugar”.

For the compound `CC[C@H](NC(=O)C1(NC(=O)[C@@H](N)CC(=O)O)CCCCC1)c1ccccc1` [Example 7, α-L-aspartyl-α-aminocyclohexanecarboxylic acid (S)-α-ethylbenzylamide], the “stability (survival rate in an acidic aqueous solution) relative to comparative compound” value in series [1] is listed as “about 9 times that of the comparative”. For the same compound, in series [2], the “Sweetness Potency” value is given as 1000 and the sweetness potency value is 1000 times that of sugar.

As for `COC[C@H](NC(=O)[C@H](NC(=O)[C@@H](N)CC(=O)O)C(C)C)C(C)C` [Example 19, α-L-aspartyl-D-valine (R)-α-methoxymethyl-β-methylpropylamide], in series [2], the “Sweetness Potency” value was 30 and the sweetness potency value was 30 times that of sugar.

Consider `COC[C@H](NC(=O)[C@H](NC(=O)[C@@H](N)CC(=O)O)C(C)C)c1ccccc1` [Example 11, α-L-aspartyl-D-valine (R)-α-methoxymethylbenzylamide], for which, in series [2], the “Sweetness Potency” value is given as 1300 and the sweetness potency value was 1300 times that of sugar.

For `CC[C@H](NC(=O)C(NC(=O)[C@@H](N)CC(=O)O)c1ccco1)c1ccccc1` (mixture of isomers), the toxicity entry in the series on ICR male mice is “no problematic toxicity”.

As for `CCC(NC(=O)C(NC(=O)C(N)CC(=O)O)C(C)CC)c1ccccc1` [D-allo-Ile (S) Et Ph], in series [2], the “Sweetness Potency” value was found to be 90.

`CCC(NC(=O)C(NC(=O)C(N)CC(=O)O)C(C)OC)c1ccccc1` [D-Thr(Me) (S) Et Ph]: the “Sweetness Potency” value in series [2] amounted to 150.

`CC[C@@H](NC(=O)[C@@H](N)CC(=O)O)C(=O)N[C@@H](COC)c1ccccc1` [Example 16, α-L-aspartyl-D-α-aminobutyric acid (R)-α-methoxymethylbenzylamide]: in series [2], the “Sweetness Potency” value was found to be 1200 and the sweetness potency value was 1200 times that of sugar.

As for `COC[C@H](NC(=O)[C@@H](C)NC(=O)[C@@H](N)CC(=O)O)c1ccccc1` [Example 18, α-L-aspartyl-D-alanine (R)-α-methoxymethylbenzylamide], in series [2], the “Sweetness Potency” value is reported as 300 and the sweetness potency value is 300 times that of sugar.

Take `CC[C@H](NC(=O)[C@H](NC(=O)[C@@H](N)CC(=O)O)[C@H](C)O)c1ccccc1` [Example 1, α-L-aspartyl-D-threonine (S)-α-ethylbenzylamide]: in the series on ICR male mice, the toxicity entry is reported as “no problematic toxicity”. In series [2], the “Sweetness Potency” value stood at 1300 and the sweetness potency value was 1300 times that of sugar. The sweetness potency value result in series [2] (listed as α-L-aspartyl-D-threonine(S)-α-ethylbenzylamide) is recorded as “about 1300 times that of sugar”.

For `CC[C@H](NC(=O)C(CC)(CC)NC(=O)[C@@H](N)CC(=O)O)c1ccccc1` [Example 9, α-L-aspartyl-α,α-diethylglycine (S)-α-ethylbenzylamide], in series [2], the “Sweetness Potency” value turned out to be 200 and the sweetness potency value is on record as 1000 times that of sugar.
